Assay results reported in paper PMC6792352, “Limited Chemical Structural Diversity Found to Modulate Thyroid Hormone Receptor in the Tox21 Chemical Library” (Environmental Health Perspectives, 2019).
Counter-ions that a name gives are not always drawn. Like-named read-outs stand apart in the source and are kept apart here.

How the values were obtained:
[1] = in vitro; conditions: rat, gh3-tre-luc cells
[2] = test system: thyroid hormone receptor (endogenous TRα and TRβ); assay: GH3-TRE-Ag primary qHTS, luciferase reporter, agonist mode (TOX21_TR_LUC_GH3_Agonist, aeid 803); type: cell-based, rat; conditions: for AC50: read-out: GH3-TRE-Ag AC50; for GH3-TRE-Ag AC50 hitc: hit call from tcpl
[3] = Global cytotoxicity: eighteen Tox21 cell viability assays; type: cell-based
[4] = test system: Tox21 cell viability assays (different cell types); assay: as above; type: cell-based
[5] = in vitro; conditions: rat
[6] = test system: thyroid hormone receptor (endogenous TRα and TRβ); assay: GH3-TRE-Ag-Followup confirmation (TOX21_TR_LUC_GH3_Agonist_Followup, aeid 2226); type: cell-based, rat; conditions: for GH3-TRE-Ag-Followup hitc: hit call from tcpl; for AC50: read-out: GH3-TRE-Ag-Followup AC50
[7] = target: T1, TRα ligand-binding domain (Homo sapiens, UniProt P10827); assay: TRa-coa LanthaScreen TR-FRET coactivator (SRC-2 peptide) recruitment, agonist (TOX21_TRA_COA_Agonist_Followup_ratio, aeid 2230); type: biochemical; conditions: for AC50 / TRa-coa hitc: agonist; for AC50: read-out: TRa-coa AC50; for TRa-coa hitc: hit call from tcpl; for Emax: read-out: EMax (% of Control) tra-coa-agonist-followup-1
T1 construct: the receptor LBDs expressed as glutathione S-transferase (GST) fusion proteins; purchased
T1 sequence (P10827 163-410 isoform P10827-2 limits assumed, other chains not shown): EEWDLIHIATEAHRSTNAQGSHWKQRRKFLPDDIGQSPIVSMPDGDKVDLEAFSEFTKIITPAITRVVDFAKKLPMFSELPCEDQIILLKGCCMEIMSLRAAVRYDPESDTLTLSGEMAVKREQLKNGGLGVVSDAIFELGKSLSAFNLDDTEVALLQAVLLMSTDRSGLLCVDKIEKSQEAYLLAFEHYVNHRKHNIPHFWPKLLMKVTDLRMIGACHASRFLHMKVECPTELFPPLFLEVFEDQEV

[8] = target: T2, human RXRα (Homo sapiens, UniProt P19793); assay: RXRa-bla-Ag mammalian one-hybrid beta-lactamase assay (TOX21_TR_RXR_BLA_Agonist_Followup_ratio, aeid 2253); type: cell-based; conditions: for tr-followup-rxr-bla-agonist-1 hitc: hit call from tcpl; for Emax: read-out: EMax (% of Control) tr-followup-rxr-bla-agonist-1; for AC50: read-out: tr-followup-rxr-bla-agonist-1 AC50
T2 construct: host or cells: GeneBLAzer UAS-bla HEK 293T
T2 sequence (P19793 227-458 limits assumed): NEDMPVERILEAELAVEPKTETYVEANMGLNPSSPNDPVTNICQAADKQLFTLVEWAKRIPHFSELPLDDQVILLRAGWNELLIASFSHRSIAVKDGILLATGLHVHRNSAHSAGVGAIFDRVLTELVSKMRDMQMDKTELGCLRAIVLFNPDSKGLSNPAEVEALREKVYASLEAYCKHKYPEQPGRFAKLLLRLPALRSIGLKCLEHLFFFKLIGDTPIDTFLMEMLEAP

[9] = test system: GH3-TRE-Luc cell line; assay: GH3-TRE-Via cell viability, CellTiter-Fluor (TOX21_TR_LUC_GH3_Antagonist_viability, aeid 805)
[10] = test system: thyroid hormone receptor (TR); assay: Classification of TR actives across characterization assays (TR-Ag / RXR-Ag; TR model binary); set-up: key to Categorization Code: FP, false positive; conditions: TR agonist characterization
In short: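 GH3-TRE qHTS agonist, antagonist and viability modes over 8,305 compounds; 84 candidates rescreened in GH3-TRE-Ag, TRβ- and RXRα-UAS-bla HEK 293T one-hybrid assays, HEK293T viability, and TRα/TRβ coactivator recruitment. Actives classified binary after removing pharmaceuticals.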

[11] = target: T3, human TRβ ligand-binding domain (Homo sapiens, UniProt P10828); assay: TRb-bla agonist mammalian one-hybrid beta-lactamase assay (TOX21_TRB_BLA_Agonist_Followup_ratio, aeid 2236); type: cell-based; set-up: host or cells: GeneBLAzer UAS-bla HEK 293T; conditions: for AC50 / TRb-bla hitc: agonist; for AC50: read-out: TRb-bla AC50; for TRb-bla hitc: hit call from tcpl; for Emax: read-out: EMax (% of Control) trb-bla-agonist-followup-1
T3 sequence (P10828 217-461 limits assumed): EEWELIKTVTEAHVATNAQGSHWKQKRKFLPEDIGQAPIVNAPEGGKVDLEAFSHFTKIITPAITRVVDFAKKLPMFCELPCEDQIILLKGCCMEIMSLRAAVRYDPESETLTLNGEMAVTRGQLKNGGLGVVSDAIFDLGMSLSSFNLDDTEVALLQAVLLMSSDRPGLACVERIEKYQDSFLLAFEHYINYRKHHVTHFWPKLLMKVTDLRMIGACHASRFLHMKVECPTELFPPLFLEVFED

[12] = test system: GH3-TRE-Luc cell line; conditions: for TR_LUC_GH3_Antagonist_viability hitc: rat, 24 h
[13] = target: T3, human TRβ ligand-binding domain; assay: TRb-coa LanthaScreen TR-FRET coactivator (SRC-2 peptide) recruitment, agonist (TOX21_TRB_COA_Agonist_Followup_ratio, aeid 2244); type: biochemical; set-up: host or cells: GeneBLAzer UAS-bla HEK 293T; conditions: for AC50 / TRb-coa hitc: agonist; for AC50: read-out: TRb-coa AC50; for TRb-coa hitc: hit call from tcpl; for Emax: read-out: EMax (% of Control) trb-coa-agonist-followup-1
[14] = target: thyroid hormone receptor (endogenous TRα and TRβ); assay: GH3-TRE-Antag primary qHTS, luciferase reporter, antagonist mode with 1 nM T3 (TOX21_TR_LUC_GH3_Antagonist, aeid 804); type: cell-based, rat
[15] = antagonist candidates, inactive samples arbitrarily set to AC50=1,000 μM
[16] = Rattus norvegicus, read-out: TR_LUC_GH3_Antagonist_viability AC50 (uM)
[17] = antagonist mode, 1 nM T3, read-out: GH3-TRE-Antag AC50

Molecule `CC[C@H]1OC(=O)C[C@@H](O)[C@H](C)[C@@H](O[C@@H]2O[C@H](C)C[C@H](N(C)C)[C@H]2O)[C@@H](CC=O)C[C@@H](C)C(=O)/C=C/[C@]2(C)O[C@H]2[C@@H]1C` [Rosaramicin] has a CC50 at 24 h ([1]; AC50 (uM) modified / 1000) of 22.9 µM, an AC50 [2, 15] greater than 92 µM and an AC50 [3] of 26.8 µM. The “Active in global cytotoxicity assays (%)” value [4] was 46.7% and the AC50 at 24 h [5] was 24.4 µM.
With `COc1ccc(OC)c(C(O)C(C)N)c1` (stereo not drawn) [Methoxamine hydrochloride] the CC50 at 24 h ([1]; AC50 (uM) modified / 1000) was greater than 50 µM, the “EMax (% of Control) gh3-tre-agonist-followup-1_agonist” value [6] was 29.2 % of Control and the GH3-TRE-Ag-Followup hitc [6] was 1. The AC50 [6] was 23.4 µM, the AC50 [7] was greater than 92 µM and the TRa-coa hitc [7] was 0. The Emax [7] was 0.282%, the “EMax (% of Control) gh3-tre-agonist” value [2] was 25.7 % of Control and the “GH3-TRE-Ag AC50 hitc” value [2] was 1. It also gave a tr-followup-rxr-bla-agonist-1 hitc [8] of 0, an Emax [8] of -0.7% and an AC50 [8] greater than 92 µM. The AC50 [9, 16] was greater than 92 µM, the “Categorization Code” value [10] was “FP” and the “GLOBAL CYTOTOXICITY cytotox.median” value [4] was greater than 92. The “GLOBAL CYTOTOXICITY cytotox.number_Active” value [4] was 0, the AC50 [11] was greater than 92 µM and the TRb-bla hitc [11] was 0. The Emax [11] was 7.9%, the TR_LUC_GH3_Antagonist_viability hitc [12] was 0 and the AC50 [13] was greater than 92 µM. For the same molecule, the TRb-coa hitc [13] was 0 and the Emax [13] was 1.5%.
In the case of `O=c1[nH]cnc2c1ncn2[C@H]1CC[C@@H](CO)O1` [2',3'-Dideoxyinosine], the CC50 at 24 h ([1]; AC50 (uM) modified / 1000) is reported as greater than 100 µM, the “EMax (% of Control) gh3-tre-agonist-followup-1_agonist” value [6] is reported as 78.5 % of Control and the GH3-TRE-Ag-Followup hitc [6] is reported as 1. For the same molecule, the AC50 [6] was 3.46 µM, the AC50 [7] was greater than 92 µM and the TRa-coa hitc [7] was 0. For the same molecule, the Emax [7] was -0.5%, the “EMax (% of Control) gh3-tre-agonist” value [2] was 1.6 % of Control and the “GH3-TRE-Ag AC50 hitc” value [2] was 0. For the same molecule, the AC50 [2] was greater than 92 µM, the tr-followup-rxr-bla-agonist-1 hitc [8] was 0 and the Emax [8] was -0.6%. For the same molecule, the AC50 [8] was greater than 92 µM, the AC50 [9, 16] was greater than 92 µM and the “Categorization Code” value [10] was “FP”. For the same molecule, the “GLOBAL CYTOTOXICITY cytotox.median” value [4] was greater than 92, the “GLOBAL CYTOTOXICITY cytotox.number_Active” value [4] was 0 and the AC50 [11] was 3.46 µM. For the same molecule, the TRb-bla hitc [11] was 1, the Emax [11] was 74.4% and the TR_LUC_GH3_Antagonist_viability hitc [12] was 0. It also gave an AC50 [13] greater than 92 µM, a TRb-coa hitc [13] of 0 and an Emax [13] of -0.448%.
With `CCC(=C(CC)c1ccc(O)cc1)c1ccc(O)cc1` [(Z,E)-Diethylstilbestrol, reference compound] the AC50 [2, 15] was greater than 92 µM, the AC50 [12] was 12.2 µM and the AC50 [14, 17] was 17.1 µM.
In the case of `CC[C@@]1(O)C(=O)OCc2c1cc1n(c2=O)Cc2cc3c(CN(C)C)c(O)ccc3nc2-1` [Topotecan hydrochloride, reference compound], the “cytotoxicity in GH3 viability assay” value [12] is reported as “not considered active” and the “activity in GH3-TRE antagonist mode assay” value [14] is reported as “complete inhibition of luciferase activity”.
In the case of `CCN(CC)C(=O)N[C@@H]1C=C2c3cccc4[nH]cc(c34)C[C@@H]2N(C)C1` [(-)-(5S,8R)-Lisuride], the “resp_max GH3-TRE-Via” value ([9]; Table S8) is reported as 42.3 and the “resp_max GH3-TRE-Antag” value ([14]; Table S8) is reported as 34.7.
In the case of `CC[C@H](O)C(C[C@H](C)N(C)C)(c1ccccc1)c1ccccc1` [(-)-alpha-Methadol hydrochloride], the CC50 at 24 h ([1]; AC50 (uM) modified / 1000, Tox21_110001=Tox21_112827, viability, 1 nM T3 present, 24 h) is reported as 43.2 µM, the “resp_max GH3-TRE-Via” value ([9]; Table S8) is reported as 67.0 and the AC50 ([9]; read-out: Average AC50 GH3-TRE-Via, Table S8, inactive set to 1000) is reported as 43.2 µM. For the same molecule, the “resp_max GH3-TRE-Antag” value ([14]; Table S8) was 76.3 and the AC50 ([14]; Table S8, read-out: Average AC50 (uM) GH3-TRE-Antag) was 58 µM.
In the case of `CC(C)(c1ccc(O)cc1)c1ccc(O)cc1` [BPA, bisphenol A], the CC50 at 24 h ([1]; AC50 (uM) modified / 1000) is reported as greater than 90 µM and the “activity in GH3-TRE antagonist mode assay” value [14] is reported as “active in suppressing the TR transactivation assay”.
`O=C1NCN(c2ccccc2)C12CCN(CCCOc1ccc(F)cc1)CC2` [AMI-193, reference compound] gave an AC50 [2, 15] greater than 92 µM, an AC50 ([9]; read-out: GH3-TRE-Via AC50, inactive samples arbitrarily set to AC50=1,000 μM) of 14.1 µM and an AC50 [14, 17] of 15.8 µM.
